Laboratory results as given in US7671061B2, “Methods and compositions for treating pain” (Hydra Biosciences, Inc., priority 2005, dated 2010).

Tests used:
hTRPA1 [1] = target: T1, hTRPA1 (Homo sapiens, UniProt O75762, K186N); assay: TRPA1 patch clamp (perforated patch, AITC-activated current); type: cell-based
T1 construct: expressed in transfected cells; host or cells: HEK293/TREx (Invitrogen), induced with tetracycline
Text: Patch clamp experiments permit the detection of currents through the TRPA1 channel in the cell line described above. To permit recording of current at a stable level and prevent the “rundown” observed by other labs, it is necessary to use the perforated patch technique, which prevents dialysis of the cytoplasm with the pipette solution. In normal whole-cell patch clamp recordings, a glass electrode is brought into contact with a single cell and a high-resistance (gigaohm) seal is established with the cell membrane. The membrane is then ruptured to achieve the whole-cell configuration, permitting control of the voltage of the cell membrane and measurement of currents flowing across the membrane using the amplifier attached to the electrode and resulting in the replacement of cytoplasm with the pipette solution. In contrast, in the perforated patch mode, an antibiotic, amphotericin, is present in the pipette solution and diffuses into contact with the cell after the seal is achieved, over the course of several minutes. The amphotericin forms ion-permeable pores in the membrane under the pipette, permitting passage of some ions but maintaining most native cytosolic components. A perfusion system permits control of the extracellular solution, including the addition of blockers and activators of the current. The current can be activated by addition of 5 μM AITC to the solution. […] In some cases, cells were grown in low density overnight on glass coverslips. Patch clamp recordings were made in the whole-cell mode with a holding potential of −40 mV. Every 5 seconds, a voltage ramp was applied from −120 to +100 mV, 400 ms in duration. Currents elicited were quantified at −80 mV and +80 mV. […] The external solution consisted of 150 mM NaCl, 4.5 mM KCl, 3 mM MgCl2, 10 mM HEPES, […], 1 mM EGTA, pH 7.4. Upon addition of AITC, TRPA1 current was induced only in TRPA1-expressing cells and not in parental HEK293 TREx cells. Removal of the AITC stimulus causes most of the current to go away. Potential blockers were tested for ability to block both inward and outward currents in the continued presence of AITC.

hERG = hERG (Homo sapiens, UniProt Q12809); assay: hERG patch clamp (Qpatch) selectivity; conditions: Table 1; for IC50: hERG Qpatch IC50 (nM); for selectivity ratio: human, selective for TRPA1 over hERG
Sequence of hERG (Q12809 whole entry): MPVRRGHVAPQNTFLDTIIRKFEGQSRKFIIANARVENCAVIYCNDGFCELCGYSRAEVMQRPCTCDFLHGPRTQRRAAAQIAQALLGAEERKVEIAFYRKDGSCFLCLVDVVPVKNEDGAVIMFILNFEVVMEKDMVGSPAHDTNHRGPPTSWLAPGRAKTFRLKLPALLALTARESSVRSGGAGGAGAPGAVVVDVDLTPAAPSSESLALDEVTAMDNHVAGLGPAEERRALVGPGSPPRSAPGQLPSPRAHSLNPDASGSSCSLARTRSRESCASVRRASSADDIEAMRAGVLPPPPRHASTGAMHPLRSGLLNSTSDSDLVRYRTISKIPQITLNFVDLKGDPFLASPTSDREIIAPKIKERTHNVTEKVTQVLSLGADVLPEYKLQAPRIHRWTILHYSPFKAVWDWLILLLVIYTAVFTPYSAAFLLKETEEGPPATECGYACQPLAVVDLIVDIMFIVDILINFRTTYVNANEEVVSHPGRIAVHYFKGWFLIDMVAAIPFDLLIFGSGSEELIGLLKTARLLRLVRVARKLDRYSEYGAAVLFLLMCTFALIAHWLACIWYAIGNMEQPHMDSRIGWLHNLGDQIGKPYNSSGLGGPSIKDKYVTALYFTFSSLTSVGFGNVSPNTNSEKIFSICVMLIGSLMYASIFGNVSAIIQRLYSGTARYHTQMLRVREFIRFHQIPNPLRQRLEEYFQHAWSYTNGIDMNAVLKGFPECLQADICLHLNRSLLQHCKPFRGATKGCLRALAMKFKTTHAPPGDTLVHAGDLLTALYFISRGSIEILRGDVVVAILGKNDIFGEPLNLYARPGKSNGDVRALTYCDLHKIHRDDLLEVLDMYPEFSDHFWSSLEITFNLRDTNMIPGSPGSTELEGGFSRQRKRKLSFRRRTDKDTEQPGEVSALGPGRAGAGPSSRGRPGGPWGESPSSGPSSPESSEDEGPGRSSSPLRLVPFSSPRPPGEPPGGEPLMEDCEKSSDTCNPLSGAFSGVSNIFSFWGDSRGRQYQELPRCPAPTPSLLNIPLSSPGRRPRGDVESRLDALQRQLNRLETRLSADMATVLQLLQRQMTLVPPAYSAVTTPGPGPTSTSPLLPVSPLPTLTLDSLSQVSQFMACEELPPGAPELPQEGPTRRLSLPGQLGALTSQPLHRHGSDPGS

hTRPA1 [2] = target: T1, hTRPA1; assay: High throughput Ca2+ fluorescence (Fluo4) assay, AITC stimulation; type: cell-based
Procedure, shortened: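 Read-out is Fluo4 fluorescence, proportional to [Ca2+]i, over ~3 min after AITC challenge, following 2 min compound pre-exposure in HEK293/TREx cells induced with 1 μg/ml tetracycline. Dye: 1 μM, 60 min, room temperature.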

[3] = Table 1, read-out: hTRPA1 Patch IC50
[4] = Table 1, read-out: hTRPA1 Fluo4 IC50
[5] = Table 2, inward current, read-out: hTRPA1 Patch Inwd IC50
[6] = Table 2, read-out: hTRPA1 Fluor IC50

T1 sequence (O75762 whole entry K186N): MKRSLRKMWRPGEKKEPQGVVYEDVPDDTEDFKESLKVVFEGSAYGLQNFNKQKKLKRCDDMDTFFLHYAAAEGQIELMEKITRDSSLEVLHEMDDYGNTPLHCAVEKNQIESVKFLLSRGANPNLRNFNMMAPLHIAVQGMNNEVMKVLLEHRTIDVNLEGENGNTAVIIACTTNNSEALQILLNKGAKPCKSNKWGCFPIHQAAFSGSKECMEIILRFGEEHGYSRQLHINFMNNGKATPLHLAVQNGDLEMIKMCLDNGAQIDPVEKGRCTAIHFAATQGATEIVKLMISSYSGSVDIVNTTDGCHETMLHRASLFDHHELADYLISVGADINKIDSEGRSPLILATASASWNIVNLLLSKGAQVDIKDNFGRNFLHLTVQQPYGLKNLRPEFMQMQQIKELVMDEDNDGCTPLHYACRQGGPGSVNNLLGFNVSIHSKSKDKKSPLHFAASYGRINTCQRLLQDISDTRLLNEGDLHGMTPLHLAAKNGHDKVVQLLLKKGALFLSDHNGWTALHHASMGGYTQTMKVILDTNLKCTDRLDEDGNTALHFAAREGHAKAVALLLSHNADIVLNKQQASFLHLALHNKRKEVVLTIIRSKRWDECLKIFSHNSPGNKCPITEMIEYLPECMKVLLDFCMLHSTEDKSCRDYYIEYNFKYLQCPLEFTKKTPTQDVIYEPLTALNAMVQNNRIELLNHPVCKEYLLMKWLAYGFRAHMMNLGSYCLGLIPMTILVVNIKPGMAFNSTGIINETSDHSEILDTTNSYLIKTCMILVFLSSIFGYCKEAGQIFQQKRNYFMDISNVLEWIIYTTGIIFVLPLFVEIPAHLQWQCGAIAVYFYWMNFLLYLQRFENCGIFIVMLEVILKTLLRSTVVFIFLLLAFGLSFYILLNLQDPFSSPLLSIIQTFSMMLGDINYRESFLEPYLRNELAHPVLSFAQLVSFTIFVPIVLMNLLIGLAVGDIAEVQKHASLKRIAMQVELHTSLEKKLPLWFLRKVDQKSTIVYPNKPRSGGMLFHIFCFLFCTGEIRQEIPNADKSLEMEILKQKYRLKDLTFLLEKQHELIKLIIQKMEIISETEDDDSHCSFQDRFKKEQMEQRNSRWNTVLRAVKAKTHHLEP

Compound | IC50 (hTRPA1 [1]; [5]) | IC50 (hTRPA1 [2]; [6]) | further results
CCOC(=O)C1=C(c2ccccc2)NC(=S)NC1c1ccccc1Cl (stereo not shown) |  |  | IC50 (hTRPA1 [1]; [3]): ≤ 5000 nM; IC50 (hERG): ≥ 20000 nM; selectivity ratio (hERG): ≥ 10; IC50 (hTRPA1 [2]; [4]): > 10 µM
CCOC(=O)C1=C(C)NC(=S)NC1c1cccc(OC)c1 (stereo not shown) |  |  | IC50 (hTRPA1 [1]; hTRPA1 Patch IC50 (nM), Table 1): ≤ 10000 nM; IC50 (hTRPA1 [2]; [4]): ≤ 5 µM
CCOC(=O)C1=C(c2ccccc2)NC(=S)NC1c1ccccc1Br (stereo not shown) |  |  | IC50 (hTRPA1 [1]; [3]): ≤ 5000 nM; IC50 (hERG): > 10000 nM; selectivity ratio (hERG): ≥ 5; IC50 (hTRPA1 [2]; [4]): > 10 µM
COC(=O)C1=C(C)NC(=S)NC1c1ccc(OC)c(Br)c1 (stereo not shown) |  |  | IC50 (hTRPA1 [1]; [3]): ≤ 1000 nM; IC50 (hTRPA1 [2]; [4]): ≤ 5 µM
COC(=O)C1=C(C)NC(=S)NC1c1c(Cl)cccc1Cl (stereo not shown) |  |  | IC50 (hTRPA1 [1]; [3]): ≤ 1000 nM; IC50 (hTRPA1 [2]; [4]): ≤ 5 µM
COC(=O)C1=C(C)NC(=S)NC1c1cc(C)ccc1C (stereo not shown) |  |  | IC50 (hTRPA1 [1]; [3]): ≤ 5000 nM; IC50 (hTRPA1 [2]; [4]): ≤ 5 µM
COC(=O)C1=C(C)NC(=S)NC1c1cccc(Cl)c1Cl (stereo not shown) |  |  | IC50 (hTRPA1 [1]; [3]): ≤ 1000 nM; IC50 (hTRPA1 [2]; [4]): ≤ 5 µM
C=CCOc1cccc(C2NC(=S)NC(C)=C2C(=O)OCC)c1 (stereo not shown) |  |  | IC50 (hTRPA1 [1]; [3]): ≤ 1000 nM; IC50 (hTRPA1 [2]; [4]): ≤ 5 µM
CN(C)c1ccc(NC(=O)Cn2cnc3c2c(=O)n(C)c(=O)n3C)cc1 [Compound 201] | > 10000 nM | ≥ 20 µM | 
Cn1c(=O)c2c(ncn2CC(=O)NC(c2ccccc2)c2ccccc2)n(C)c1=O [Compound 203] | > 10000 nM | > 10 µM | 
Cc1cc(Br)ccc1NC(=O)Cn1cnc2c1c(=O)n(C)c(=O)n2C [Compound 204] | > 10000 nM | ≤ 10 µM | 
Cn1c(=O)c2c(ncn2CC(=O)NCc2cccnc2)n(C)c1=O [Compound 206] | ≤ 10000 nM | > 10 µM | 
COc1ccc(NC(=O)Cn2cnc3c2c(=O)n(C)c(=O)n3C)cc1 [Compound 207] | ≤ 10000 nM | > 10 µM | 
CCOc1ccc(NC(=O)Cn2cnc3c2c(=O)n(C)c(=O)n3C)cc1 [Compound 208] | > 10000 nM | ≤ 10 µM | 
Cn1c(=O)c2c(ncn2CC(=O)Nc2ccc(F)cc2)n(C)c1=O [Compound 209] | > 10000 nM | ≤ 10 µM | 
Cn1c(=O)c2c(ncn2CC(=O)Nc2ccc([N+](=O)[O-])cc2)n(C)c1=O [Compound 210] | ≤ 10000 nM | ≥ 20 µM | 
Cn1c(=O)c2c(ncn2CC(=O)Nc2ccncc2)n(C)c1=O [Compound 211] | > 10000 nM | > 10 µM | 
Cn1c(=O)c2c(ncn2CC(=O)Nc2ccc(C(N)=O)cc2)n(C)c1=O [Compound 212] | > 10000 nM | > 10 µM | 
Cn1c(=O)c2c(ncn2CC(=O)Nc2ccc3ccccc3c2)n(C)c1=O [Compound 213] | > 10000 nM | ≤ 10 µM | 

Compound | IC50 (hTRPA1 [1]; [5]) | IC50 (hTRPA1 [2]; [6]) | further results
Cn1c(=O)c2c(ncn2CC(=O)Nc2ccc(C#N)cc2)n(C)c1=O [Compound 214] | ≤ 10000 nM | ≤ 10 µM | 
Cn1c(=O)c2c(ncn2CC(=O)Nc2ccc(OCc3ccccc3)cc2)n(C)c1=O [Compound 224] | ≤ 5000 nM | ≤ 1 µM | 
Cn1c(=O)c2c(ncn2CC(=O)Nc2nccs2)n(C)c1=O [Compound 225] | > 10000 nM | > 10 µM | 
Cn1c(=O)c2c(ncn2CC(=O)Nc2ccc(S(N)(=O)=O)cc2)n(C)c1=O [Compound 228] | > 10000 nM | > 10 µM | 
COc1cc([N+](=O)[O-])ccc1NC(=O)Cn1cnc2c1c(=O)n(C)c(=O)n2C [Compound 229] | ≤ 1000 nM | ≤ 5 µM | 
Cn1c(=O)c2c(ncn2CC(=O)Nc2nc(-c3ccccc3)cs2)n(C)c1=O [Compound 230] | ≤ 10000 nM | ≤ 10 µM | 
Cc1ccc2nc(NC(=O)Cn3cnc4c3c(=O)n(C)c(=O)n4C)sc2c1 [Compound 233] | ≤ 5000 nM | ≤ 5 µM | 
COc1ccc2nc(NC(=O)Cn3cnc4c3c(=O)n(C)c(=O)n4C)sc2c1 [Compound 234] | ≤ 10000 nM | ≤ 5 µM | 
CC(C)Cc1nnc(NC(=O)Cn2cnc3c2c(=O)n(C)c(=O)n3C)s1 [Compound 235] | ≤ 10000 nM | > 10 µM | 
Cn1c(=O)c2c(ncn2CC(=O)Nc2ccc3c(c2)OCO3)n(C)c1=O [Compound 237] | ≤ 10000 nM | > 10 µM | 
Cn1c(=O)c2c(ncn2CC(=O)Nc2ccc(Nc3ccccc3)cc2)n(C)c1=O [Compound 250] | ≤ 1000 nM | ≤ 5 µM | 
Cn1c(=O)c2c(ncn2CC(=O)Nc2ccc(Cl)cc2)n(C)c1=O [Compound 251] | ≤ 1000 nM | ≤ 5 µM | 
Cn1c(=O)c2c(ncn2CC(=O)Nc2ccc(N3CCCCC3)cc2)n(C)c1=O [Compound 252] | ≤ 10000 nM | ≤ 5 µM | 
Cn1c(=O)c2c(ncn2CC(=O)Nc2ccc(SC(F)F)cc2)n(C)c1=O [Compound 257] | ≤ 1000 nM | ≤ 1 µM | 
COc1ccc(CCNC(=O)Cn2cnc3c2c(=O)n(C)c(=O)n3C)cc1 [Compound 261, 2-(1,3-Dimethyl-2,6-dioxo-1,2,3,6-tetrahydropurin-7-yl)-N-[2-(4-methoxy-phenyl)-ethyl]-acetamide] | ≤ 5000 nM | ≤ 5 µM | 
Cn1c(=O)c2c(ncn2CC(=O)Nc2ccc(Oc3ccccc3)cc2)n(C)c1=O [Compound 262] | ≤ 500 nM | ≤ 5 µM | 
Cn1c(=O)c2c(ncn2CC(=O)Nc2ccc(C34CC5CC(CC(C5)C3)C4)cc2)n(C)c1=O [Compound 264] | ≤ 500 nM | ≤ 5 µM | 
Cc1ccc(Oc2ccc(NC(=O)Cn3cnc4c3c(=O)n(C)c(=O)n4C)cc2)cc1 [Compound 266] | ≤ 500 nM | ≤ 5 µM | 
Cn1c(=O)c2c(ncn2CC(=O)Nc2ccc(Cl)c(C(F)(F)F)c2)n(C)c1=O [Compound 267] | ≤ 1000 nM | ≤ 1 µM | 

Compound | IC50 (hTRPA1 [1]; [5]) | IC50 (hTRPA1 [2]; [6]) | further results
Cn1c(=O)c2c(ncn2CC(=O)NCCc2ccc(Cl)cc2)n(C)c1=O [Compound 268, N-[2-(4-Chlorophenyl)-ethyl]-2-(1,3-dimethyl-2,6-dioxo-1,2,3,6-tetrahydro-purin-7-yl)-acetamide] | ≤ 1000 nM | > 10 µM | 
CCCCc1ccc2nc(NC(=O)Cn3cnc4c3c(=O)n(C)c(=O)n4C)sc2c1 [Compound 269] | ≤ 1000 nM | ≤ 5 µM | 
CCCc1ccc(-c2csc(NC(=O)Cn3cnc4c3c(=O)n(C)c(=O)n4C)n2)cc1 [Compound 274] | ≤ 1000 nM | ≤ 5 µM | 
Cc1ccc(F)cc1NC(=O)Cn1cnc2c1c(=O)n(C)c(=O)n2C [Compound 277] | ≤ 10000 nM | > 10 µM | 
Cn1c(=O)c2c(ncn2CC(=O)Nc2ccc(F)c(Cl)c2)n(C)c1=O [Compound 281] | ≤ 10000 nM | ≤ 5 µM | 
Cn1c(=O)c2c(ncn2CC(=O)Nc2ccc(-c3ccccc3)cc2)n(C)c1=O [Compound 294] | ≤ 1000 nM | ≤ 5 µM | 
Cn1c(=O)c2c(ncn2CC(=O)Nc2cccc(I)c2)n(C)c1=O [Compound 295] | ≤ 1000 nM | ≤ 5 µM | 
CC(C(=O)Nc1ccc(Br)cc1)n1cnc2c1c(=O)n(C)c(=O)n2C (stereo not shown) [Compound 296] | ≤ 10000 nM | ≤ 5 µM | 
CCc1ccc(NC(=O)C(C)n2cnc3c2c(=O)n(C)c(=O)n3C)cc1 (stereo not shown) [Compound 299] | ≤ 10000 nM | ≤ 5 µM | 
CC(C(=O)Nc1ccc(Cl)cc1)n1cnc2c1c(=O)n(C)c(=O)n2C (stereo not shown) [Compound 300] | ≤ 1000 nM | ≤ 5 µM | 
Cn1c(=O)c2c(ncn2CC(=O)Nc2c(Cl)cccc2Cl)n(C)c1=O [Compound 305] | ≤ 10000 nM | > 10 µM | 
Cc1ccccc1CNC(=O)Cn1cnc2c1c(=O)n(C)c(=O)n2C [Compound 313] | ≤ 10000 nM | > 10 µM | 
Cc1ccc(NC(=O)C(C)n2cnc3c2c(=O)n(C)c(=O)n3C)cc1 (stereo not shown) [Compound 315] | ≤ 1000 nM | > 10 µM | 
Cn1c(=O)c2c(ncn2CC(=O)NCCSCc2ccccc2)n(C)c1=O [Compound 329] | ≤ 10000 nM | ≤ 10 µM | 
Cn1c(=O)c2c(ncn2CC(=O)Nc2ccc(Br)cc2Cl)n(C)c1=O [Compound 333] | ≤ 1000 nM | ≤ 5 µM | 
Cn1c(=O)c2c(ncn2CC(=O)Nc2ccc3c(c2)OC2(CCCC2)O3)n(C)c1=O [Compound 344] | ≤ 5000 nM | ≤ 5 µM | 
Cn1c(=O)c2c(ncn2CC(=O)NCC(C)(c2ccccc2)c2ccccc2)n(C)c1=O [Compound 348] | > 10000 nM | ≤ 5 µM | 
Cn1c(=O)c2c(ncn2CC(=O)Nc2ccccc2N2CCCC2)n(C)c1=O [Compound 350] | > 10000 nM | > 10 µM | 
Cn1c(=O)c2c(ncn2CC(=O)Nc2ccc(Br)cc2F)n(C)c1=O [Compound 371] | ≤ 5000 nM | ≤ 5 µM | 
